Results: patent US5103018A, “Mitomycin derivatives” (Kyowa Hakko Kogyo Kabushiki Kaisha, priority 1986, dated 1992)
Converted amounts (≈) assume the structure as drawn.

How the values were obtained:
Sarcoma 180 solid tumour = test: animal or person; type: in vivo, mice (ddy strain); settings: for ED50: Mus musculus, Sarcoma-180, ip, 168 h, read-out: ED50 ip
Excerpt: (§1) Certain compounds were selected from Compounds I. The following Table 4 indicates anti-tumour activity against Sarcoma 180 solid tumour (ED50), acute toxicity (LD50) and effects on the peripheral leucocytes (WBC4000) of each compound.
(1) Effect against Sarcoma 180 solid tumour:
5×10^6 cells of Sarcoma 180 solid tumour cells were abdominally implanted into male mice of ddy strain. 7 days after this, ascites cells were sampled. The cells were washed once with a sterilized physiological solution of sodium chloride and were used to prepare a cell suspension containing 5×10^7 cells per ml. On each occasion, 0.1 ml of the cell suspension was subcutaneously implanted into the right armpit of a male mouse (ddy strain; body weight 20±2 g). 24 hours after the implantation of the tumour cells, the test compound which was dissolved in a physiological solution of sodium chloride with or without addition of Tween 80 was abdominally administered to each mouse of a group consisting of 5 animals at a does of 0.1-0.2 ml. The anti-tumour activity was determined as follows:
7 days after the implantation, the major axis (a) and the minor axis (b) of the tumour were measured to calculate a value of "a×b^2 /2" which corresponds to the volume of the tumour. The anti-tumour activity was expressed by T/C viz. the ratio of the volume of the tumours (T) of the group of animals administered with the test compound to the corresponding volume of tumours (C) of the untreated animals.
(2) Determination of ED50 :
The term ED50 denotes the administered amount needed for reducing the volume of Sarcoma 180 solid tumours in the animals to 50% on the basis of the corresponding volume of Sarcoma 180 solid tumours in control (untreated) animals.
On graph paper, T/C was indicated by an arithmetic scale on the longitudinal axis and the administered amount of test compound was indicated by a logarithmic scale on the lateral axis.

Acute toxicity = type: in vivo, mice (ddy); settings: mouse, in vivo, ip; for LD50 at 336 h: ddy mice, single i.p., 14 days, Behren Korber's method; for selectivity ratio: read-out: (C.I.)* = (LD50/ED50)/[(LD50/ED50) of MMC1]
Method: as §1
Each animal of the test group consisting of 5 ddy mice was once administered (i.p.) with a test compound. […] The LD50 was determined by Behren Korber's method.

in vivo = type: in vivo, mice (ddy strain); settings: mouse, in vivo, ip; read-out: (WBC4000/ED50)* = (WBC4000/ED50)/[(WBC4000/ED50) of MMC1]
Method: as §1
(4) Effect upon the number of the peripheral leucocytes:
Sarcoma 180 solid tumour cells (5×10^6) were subcutaneously implanted into the right armpit of each mouse (body weight 20±2 g) of a group consisting of 5 male mice (ddy strain). 24 hours after implantation,a test compound was abdominally administered to each mouse. 4 days later, blood (each 0.02 ml) was collected from the suborbital plexus vein of each tumour-carrying mouse. The collected sample of blood was dispersed in 9.98 ml of Cell-kit Seven solution. One drop of saponin solution was added to the sample to dissolve erythrocytes and then a microcell counter was used to measure the number of leucocytes. On graph paper, the number of leucocytes was indicated on the y-axis by an arithmetic scale and the does of the test compound was indicated on the x-axis by a logarithmic scale.
The relationship between the number of peripheral leucocytes and the dosage of the test compound was plotted to obtain WBC4000 viz. the dosage corresponding to […] per mm^3 (about half of the number of leucocytes of normal mice).

[1] = system: Staphylococcus aureus ATCC 6583P; test: Minimum inhibitory concentration, agar dilution method, SA; type: cell-based; settings: Staphylococcus aureus, ATCC6583P, pH 7, read-out: minimum inhibitory concentration, SA
Excerpt: (§2) Certain Compounds I were selected. Table 3 indicates their anti-bacterial activities in terms of their minimum inhibitory concentration (μg/ml), determined by the agar dilution method effected at a pH of 7.0. In this table, the microorganisms used are abbreviated as follows:
SA: Staphylococcus aureus ATCC 6583P

[2] = system: Streptococcus faecalis ATCC 10541; test: Minimum inhibitory concentration, agar dilution method, SF; type: cell-based; settings: Enterococcus faecalis, ATCC10541, pH 7, read-out: minimum inhibitory concentration, SF
Excerpt: as §2
SF: Streptococcus faecalis ATCC 10541

Molecule	ED50 ip (Sarcoma 180 solid tumour; ddy mice, i.p. 24 h after implantation, 50% reduction of tumour volume at day 7)	ED50 (Sarcoma 180 solid tumour)	LD50 at 336 h (Acute toxicity)	selectivity ratio (Acute toxicity)	selectivity ratio (in vivo)	MIC [1]	MIC [2]
7-N-[2-[[2-[[(1S)-5-amino-1-carboxypentyl]carbamoyl]ethyl]dithio]ethyl]mitomycin C [Compound 23]	6.2 mg/kg	–	–	–	–	–	–
CC1=C(NCCSSCCNC(=O)C[C@H](N)C(=O)O)C(=O)C2=C(C1=O)N1C[C@H]3[C@H](N3C)[C@]1(O)[C@H]2COC(N)=O (stereo partly drawn) [Compound 10, 7-N-[2-[[2-(N^4 -L-asparagino)ethyl]dithio]ethyl]mitomycin D]	–	13 mg/kg	75 mg/kg	2.19	2.5	–	–
CC1=C(NCCSSCCNC(=O)CC[C@@H](N)C(=O)O)C(=O)C2=C(C1=O)N1C[C@H]3[C@H](N3C)[C@]1(O)[C@H]2COC(N)=O (stereo partly drawn) [Compound 11, 7-N-[2-[[2-(N^5 -D-glutamino)ethyl]dithio]ethyl]mitomycin D]	–	16.9 mg/kg	75 mg/kg	1.59	1.64	–	–
CC1=C(NCCSSCCNC(=O)[C@@H]2CCC(=O)N2)C(=O)C2=C(C1=O)N1C[C@H]3[C@H](N3C)[C@]1(O)[C@H]2COC(N)=O (stereo partly drawn) [Compound 12, 7-N-[2-[[2-(L-pyroglutamylamino)ethyl]dithio]ethyl]mitomycin D]	–	18.4 mg/kg	75 mg/kg	1.8	5.57	–	–
CO[C@@]12[C@H](COC(N)=O)C3=C(C(=O)C(C)=C(NCCSSCCNC(=O)[C@@H]4CCCN4)C3=O)N1C[C@@H]1N[C@@H]12 [Compound 13, 7-N-[2-[[2-(L-prolylamino)ethyl]dithio]ethyl]mitomycin C]	–	12.2 mg/kg	30 mg/kg	1.17	2.3	–	–
CO[C@@]12[C@H](COC(N)=O)C3=C(C(=O)C(C)=C(NCCSSCCNC(=O)CCC(=O)Oc4c(C)c(C)c5c(c4C)CC[C@@](C)(CCC[C@H](C)CCC[C@H](C)CCCC(C)C)O5)C3=O)N1C[C@@H]1N[C@@H]12 [Compound 16]	–	95.9 mg/kg	> 100 mg/kg	> 0.37	1.2	–	–
CC1=C(NCCSSCCNC=O)C(=O)C2=C(C1=O)N1C[C@H]3[C@H](N3C)[C@]1(O)[C@H]2COC(N)=O (stereo partly drawn) [Compound 18, 7-N-[2-[(2-formamidoethyl)dithio]ethyl]mitomycin D]	–	10.6 mg/kg	52.5 mg/kg	1.94	3.89	–	–
CO[C@@]12[C@H](COC(N)=O)C3=C(C(=O)C(C)=C(NCCSSCCNC(=O)C(F)(F)F)C3=O)N1C[C@@H]1N[C@@H]12 [Compound 19, 7-N-[2-[(2-trifluoroacetamidoethyl)dithio]ethyl]mitomycin C]	–	8.7 mg/kg	9.4 mg/kg	0.51	> 0.96	–	–
CC1=C(NCCSSCCNC(=O)C(F)(F)F)C(=O)C2=C(C1=O)N1C[C@H]3[C@H](N3C)[C@]1(O)[C@H]2COC(N)=O (stereo partly drawn) [Compound 20, 7-N-[2-[(2-trifluoroacetamidoethyl)dithio]ethyl]mitomycin D]	–	11.6 mg/kg	30 mg/kg	0.93	4.4	–	–
CO[C@@]12[C@H](COC(N)=O)C3=C(C(=O)C(C)=C(NCCSSCCC(=O)N[C@@H](CCCN)C(=O)O)C3=O)N1C[C@@H]1N[C@@H]12 [Compound 22, 7-N-[2-[[2-[[(1S)-4-amino-1-carboxybutyl]carbamoyl]ethyl]dithio]ethyl]mitomycin C]	–	5 mg/kg	–	–	–	–	–
CC1=C(NCCSSCCC(=O)N[C@@H](CCCN)C(=O)O)C(=O)C2=C(C1=O)N1C[C@H]3[C@H](N3C)[C@]1(O)[C@H]2COC(N)=O (stereo partly drawn) [Compound 24, 7-N-[2-[[2-[[(1S)-4-amino-1-carboxybutyl]carbamoyl]ethyl]dithio]ethyl]mitomycin D]	–	31.2 mg/kg	> 100 mg/kg	> 1.53	2.02	–	–
CC1=C(NCCSSCCC(=O)N[C@@H](CCCCN)C(=O)O)C(=O)C2=C(C1=O)N1C[C@H]3[C@H](N3C)[C@]1(O)[C@H]2COC(N)=O (stereo partly drawn) [Compound 25, 7-N-[2-[[2-[[(1S)-5-amino-1-carboxypentyl]carbamoyl]ethyl]dithio]ethyl]mitomycin D]	–	46.6 mg/kg	> 100 mg/kg	> 1.02	1.59	–	–
CCOC(=O)CNC(=O)CCSSCCNC1=C(C)C(=O)C2=C(C1=O)[C@@H](COC(N)=O)[C@@]1(OC)[C@H]3N[C@H]3CN21 [Compound 29, 7-N-[2-[[2-[[(ethoxycarbonyl)methyl]carbamoyl]ethyl]dithio]ethyl]mitomycin C]	–	9.4 mg/kg	33.8 mg/kg	1.77	2.9	–	–
CCOC(=O)CNC(=O)C(C)SSCCNC1=C(C)C(=O)C2=C(C1=O)[C@@H](COC(N)=O)[C@@]1(OC)[C@H]3N[C@H]3CN21 (stereo partly drawn) [Compound 30, 7-N-[2-[[1-[[(ethoxycarbonyl)methyl]carbamoyl]ethyl]dithio]ethyl]mitomycin C]	–	10.3 mg/kg	–	–	–	–	–
CO[C@@]12[C@H](COC(N)=O)C3=C(C(=O)C(C)=C(NCCSSCCC(=O)NCCc4ccc(O)c(O)c4)C3=O)N1C[C@@H]1N[C@@H]12 [Compound 31, 7-N-[2-[[2-[[2-(3,4-dihydroxyphenyl)ethyl]carbamoyl]ethyl]dithio]ethyl]mitomycin C]	–	7.1 mg/kg	26.3 mg/kg	1.15	2.28	–	–
CO[C@@]12[C@H](COC(N)=O)C3=C(C(=O)C(C)=C(NCCSSCCOC(=O)/C=C(C)/C=C/C=C(C)/C=C/C4=C(C)CCCC4(C)C)C3=O)N1C[C@@H]1N[C@@H]12 [Compound 35, 7-N-[2-[[2-(retinoyloxy)ethyl]dithio]ethyl]mitomycin C]	–	–	–	–	–	5 µg/mL (≈ 6.64 µM)	10 µg/mL (≈ 13.3 µM)
CO[C@@]12[C@H](COC(N)=O)C3=C(C(=O)C(C)=C(NCCSSCCS(=O)(=O)O)C3=O)N1C[C@@H]1N[C@@H]12 [Compound 36, 7-N-[2-[(2-sulfoethyl)dithio]ethyl]mitomycin C]	–	7 mg/kg	–	–	–	–	–
CO[C@@]12[C@H](COC(N)=O)C3=C(C(=O)C(C)=C(NCCSSCc4c[nH]c(=O)[nH]c4=O)C3=O)N1C[C@@H]1N[C@@H]12 [Compound 37, 7-N-[2-[[(2,4-dioxopyrimidin-5-yl)methyl]dithio]ethyl]mitomycin C]	–	16.4 mg/kg	–	–	–	–	–
CC1=C(NCCSSCc2c[nH]c(=O)[nH]c2=O)C(=O)C2=C(C1=O)N1C[C@H]3[C@H](N3C)[C@]1(O)[C@H]2COC(N)=O (stereo partly drawn) [Compound 38, 7-N-[2-[[(2,4-dioxopyrimidin-5-yl)methyl]dithio]ethyl]mitomycin D]	–	24.5 mg/kg	> 150 mg/kg	> 2.26	> 8.71	–	–
CC1=C(NCCSSCc2cn([C@H]3C[C@H](O)[C@@H](CO)O3)c(=O)[nH]c2=O)C(=O)C2=C(C1=O)N1C[C@H]3[C@H](N3C)[C@]1(O)[C@H]2COC(N)=O (stereo partly drawn) [Compound 40, 7-N-[2-[[(2'-deoxyuridin-5-yl)methyl]dithio]ethyl]mitomycin D]	–	104 mg/kg	≥ 200 mg/kg	1.22	0.95	–	–
